Bounds are passed on as bounds.

The source of these data is patent publication US20230117034A1, “PYRAZOLOTRIAZINES” (Bayer Aktiengesellschaft, priority 2019, published 2023).

One assay has as its target T1, CDK9/CycT1 (Homo sapiens, UniProt P50750).
T1 construct: Recombinant full-length His-tagged human CDK9 and CycT1; purchased Life Technologies PV4131; host or cells: insect cells
The assay can be described thus: CDK9/CycT1 high ATP kinase assay (TR-FRET, 2 mM ATP). The class given is biochemical. The conditions noted are these: 2 mM ATP (high ATP); median; read-out: CDK9/CyclinT1, 2 mM ATP (high ATP), IC50 (median). Put shortly:
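Full-length His-tagged human CDK9/CycT1 (insect cell, ~0.5 μg/mL) preincubated 15 min at 22 °C with compound in Tris pH 8.0, MgCl2, DTT buffer before reaction with biotinylated peptide substrate at high ATP (2 mM).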
For orientation: TR-FRET usually uses a lanthanide donor and a delayed reading to cut background.

The test system of assay [1] is BRCA1 mRNA expression in MDA-MB-231 cells. The assay is described as follows: qRT-PCR assay: BRCA1 mRNA expression in MDA-MB-231. The class given is cell-based, human. Conditions: Homo sapiens, MDA-MB-231, Inhibition of BRCA1 mRNA expression in MDA-MB-231 cells; median; read-out: RTqPCR-MDA-MB-231, IC50, BRCA1 (median). In short, it runs like this: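 MDA-MB-231 cells, 200,000/well, treated 24 h after plating with continuous 24 h compound exposure. RNA extracted, 600 ng reverse-transcribed, BRCA1 measured by RT-qPCR normalized to GAPDH.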

The target of assay [2] is T2, CDK12 (nuclear staining in CAL-120 cells) (Homo sapiens, UniProt Q9NYV4).
T2 construct: endogenous in cells; host or cells: CAL-120 human breast cancer cells (DSMZ ACC 459)
T2 sequence (Q9NYV4 whole entry): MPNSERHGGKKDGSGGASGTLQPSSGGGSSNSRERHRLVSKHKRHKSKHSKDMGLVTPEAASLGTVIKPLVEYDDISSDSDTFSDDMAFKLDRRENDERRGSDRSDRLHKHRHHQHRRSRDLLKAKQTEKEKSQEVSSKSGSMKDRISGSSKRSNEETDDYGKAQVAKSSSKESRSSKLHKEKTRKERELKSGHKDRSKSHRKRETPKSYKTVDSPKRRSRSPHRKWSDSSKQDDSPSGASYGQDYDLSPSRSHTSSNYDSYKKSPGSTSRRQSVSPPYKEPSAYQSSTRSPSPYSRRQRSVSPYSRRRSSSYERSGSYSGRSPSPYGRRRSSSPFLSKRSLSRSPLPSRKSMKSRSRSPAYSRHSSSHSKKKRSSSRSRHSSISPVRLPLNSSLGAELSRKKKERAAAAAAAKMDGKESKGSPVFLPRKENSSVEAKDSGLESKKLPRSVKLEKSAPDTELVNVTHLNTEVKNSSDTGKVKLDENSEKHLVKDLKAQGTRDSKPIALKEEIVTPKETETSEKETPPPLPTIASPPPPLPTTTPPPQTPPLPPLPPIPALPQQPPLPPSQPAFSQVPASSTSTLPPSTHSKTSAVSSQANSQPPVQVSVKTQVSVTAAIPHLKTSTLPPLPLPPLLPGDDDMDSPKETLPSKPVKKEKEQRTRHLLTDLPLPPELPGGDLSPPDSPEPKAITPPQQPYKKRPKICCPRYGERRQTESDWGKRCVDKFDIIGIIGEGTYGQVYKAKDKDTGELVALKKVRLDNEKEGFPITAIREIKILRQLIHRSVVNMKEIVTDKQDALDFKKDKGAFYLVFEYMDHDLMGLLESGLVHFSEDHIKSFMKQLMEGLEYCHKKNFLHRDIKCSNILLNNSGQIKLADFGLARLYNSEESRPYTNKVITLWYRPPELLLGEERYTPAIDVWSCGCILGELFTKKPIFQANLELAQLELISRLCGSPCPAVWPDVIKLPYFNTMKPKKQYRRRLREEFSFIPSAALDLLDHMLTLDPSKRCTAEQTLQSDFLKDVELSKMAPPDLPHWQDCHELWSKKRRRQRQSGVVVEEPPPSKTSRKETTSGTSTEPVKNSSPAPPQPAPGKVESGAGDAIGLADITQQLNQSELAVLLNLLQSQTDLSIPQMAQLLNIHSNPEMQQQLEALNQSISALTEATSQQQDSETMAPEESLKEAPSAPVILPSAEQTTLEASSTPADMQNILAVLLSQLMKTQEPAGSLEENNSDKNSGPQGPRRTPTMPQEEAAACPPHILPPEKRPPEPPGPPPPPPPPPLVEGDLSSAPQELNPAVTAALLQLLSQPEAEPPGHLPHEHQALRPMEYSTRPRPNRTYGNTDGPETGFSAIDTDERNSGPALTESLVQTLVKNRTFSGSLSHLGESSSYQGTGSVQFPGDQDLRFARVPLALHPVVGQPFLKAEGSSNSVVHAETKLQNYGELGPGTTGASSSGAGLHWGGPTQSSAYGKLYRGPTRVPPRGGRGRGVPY
T2 sequence (O75909 whole entry partner): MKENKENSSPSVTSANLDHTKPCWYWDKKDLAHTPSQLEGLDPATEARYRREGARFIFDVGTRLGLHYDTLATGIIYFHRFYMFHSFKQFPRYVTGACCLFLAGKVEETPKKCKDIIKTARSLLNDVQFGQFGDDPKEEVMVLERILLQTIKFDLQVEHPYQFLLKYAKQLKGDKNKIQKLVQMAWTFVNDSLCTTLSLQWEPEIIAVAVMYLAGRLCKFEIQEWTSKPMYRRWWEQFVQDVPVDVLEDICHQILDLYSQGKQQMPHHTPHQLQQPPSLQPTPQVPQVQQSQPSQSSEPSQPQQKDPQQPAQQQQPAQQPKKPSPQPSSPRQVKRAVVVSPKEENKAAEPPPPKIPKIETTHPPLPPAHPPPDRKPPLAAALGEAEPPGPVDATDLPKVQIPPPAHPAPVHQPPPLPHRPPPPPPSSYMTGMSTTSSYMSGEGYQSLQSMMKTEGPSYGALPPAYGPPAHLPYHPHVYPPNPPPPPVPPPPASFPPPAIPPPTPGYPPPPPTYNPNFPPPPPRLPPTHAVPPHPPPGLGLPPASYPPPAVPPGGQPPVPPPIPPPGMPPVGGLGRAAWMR
The assay can be described thus: CDK12 nuclear protein level: immunofluorescence/high content analysis (CAL-120). The conditions noted are these: for DC50: CAL-120 cells, 24 h, immunofluorescence, 50% reduction of nuclear CDK12 staining intensity, median, read-out: CDK12 degradation IF, DC50- [mol/l] (median); for (IC50 CDK12 high ATP) to (Degradation DC50 CDK12) ratio: ratio of IC50 CDK12 high ATP kinase assay to DC50 CDK12 degradation (IF, CAL-120). The assay is classed as cell-based. In short, it runs like this: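 CAL-120 cells were treated with compound for 24 h at 37 °C, fixed with PFA and immunostained for CDK12. Nuclear CDK12 intensity was quantified by automated image analysis and normalized to DMSO and control. DC50 is the concentration giving 50% reduction of nuclear staining.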

The target in assay [3] is T3, CYCLIN K (nuclear staining in CAL-120 cells) (Homo sapiens, UniProt O75909).
T3 construct: endogenous in cells; host or cells: CAL-120 human breast cancer cells (DSMZ ACC 459)
T3 sequence (O75909 whole entry): as the sequence (O75909 whole entry partner) above
T3 sequence (Q9NYV4 whole entry partner): as the sequence (Q9NYV4 whole entry) above
The assay is described as follows: CYCLIN K nuclear protein level: immunofluorescence high content analysis (CAL-120). The assay is classed as cell-based. The conditions noted are these: 24 h, 50% reduction of nuclear CCNK staining intensity, median, read-out: CYCLIN K degradation IF, DC50-[mol/l] (median). The protocol:
8. CYCLIN K nuclear protein level: immunofluorescence High Content Analysis
CAL-120 human breast cancer cells (DSMZ ACC 459) are seeded in 1536-well microtiter plates (800 cells per well) containing 50 nanoL of compounds in Dose-Response. Control wells received DMSO or Example 4. Plates are then incubated for 24 h at 37° C. in an humidified incubator and fixed with 4% PFA for 10 min. Then immunofluorescence (IF) against CYCLIN K (ThermoFisher Scientific CONK Antibody #PA5-85020, rabbit, 1:200 dilution) is performed using standard IF protocols. Cells are then stained with Hoechst 33342 (Life Technologies, H-1399, 0.1 microg/ml) and imaged on an automated confocal microscopy system (e.g. Perkin Elmer Opera Phenix). Nuclear and cytoplasmic intensity as well as the nuclear/cytoplasmic intensity ratio is determined by automated image analysis using custom generated scripts (MetaXpress). Data is then transferred to Genedata Screener software, normalized to DMSO and control and DC50 values (degrading concentration to achieve 50% reduction of nuclear CCNK staining intensity relative to controls) are reported.

T1 sequence (P50750 whole entry): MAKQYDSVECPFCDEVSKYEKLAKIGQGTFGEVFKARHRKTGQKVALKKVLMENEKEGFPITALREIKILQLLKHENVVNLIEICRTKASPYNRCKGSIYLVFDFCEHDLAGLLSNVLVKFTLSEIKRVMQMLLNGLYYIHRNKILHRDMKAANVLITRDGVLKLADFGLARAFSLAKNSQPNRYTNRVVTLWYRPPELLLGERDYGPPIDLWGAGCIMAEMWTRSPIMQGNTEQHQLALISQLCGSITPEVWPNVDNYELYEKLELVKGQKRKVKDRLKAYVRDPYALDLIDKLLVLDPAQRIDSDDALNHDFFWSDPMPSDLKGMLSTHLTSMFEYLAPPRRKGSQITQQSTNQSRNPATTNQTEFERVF
T1 sequence (O60563 whole entry partner): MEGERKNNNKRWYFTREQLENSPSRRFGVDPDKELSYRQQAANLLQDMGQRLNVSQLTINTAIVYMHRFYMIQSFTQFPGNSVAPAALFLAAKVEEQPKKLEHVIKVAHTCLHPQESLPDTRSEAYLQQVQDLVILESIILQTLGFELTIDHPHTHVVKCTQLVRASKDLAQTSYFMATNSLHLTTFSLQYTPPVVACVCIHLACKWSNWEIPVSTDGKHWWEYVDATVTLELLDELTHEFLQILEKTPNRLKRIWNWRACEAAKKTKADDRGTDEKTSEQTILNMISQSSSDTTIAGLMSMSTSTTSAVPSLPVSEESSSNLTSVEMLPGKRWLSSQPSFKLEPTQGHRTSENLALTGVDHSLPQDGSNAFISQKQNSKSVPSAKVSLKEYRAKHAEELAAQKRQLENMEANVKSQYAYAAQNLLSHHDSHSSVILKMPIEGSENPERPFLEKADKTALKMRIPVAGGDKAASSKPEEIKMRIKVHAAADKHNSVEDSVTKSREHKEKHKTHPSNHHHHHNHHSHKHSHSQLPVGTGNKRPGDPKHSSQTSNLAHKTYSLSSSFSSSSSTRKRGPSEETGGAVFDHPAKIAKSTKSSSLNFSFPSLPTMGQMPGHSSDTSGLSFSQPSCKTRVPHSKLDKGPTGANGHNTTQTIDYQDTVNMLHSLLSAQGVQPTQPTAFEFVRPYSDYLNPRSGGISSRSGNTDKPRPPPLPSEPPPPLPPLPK

Regarding `CN1CCN(c2nc(NCc3nc4c(F)c(F)ccc4[nH]3)n3ncc(C4CC4)c3n2)CC1` [Example 159, 8-cyclopropyl-N-[(4,5-difluoro-1H-benzimidazol-2-yl)methyl]-2-(4-methylpiperazin-1-yl)pyrazolo[1,5-a][1,3,5]triazin-4-amine], the values for the IC50 (at CDK9/CycT1; in assay [1]) were over 20000 nM and 1.68 nM, respectively. In addition, the DC50 in assay [2] turned out to be 0.521 nM; in assay [3] it was 0.0663 nM. Further, the “(IC50 CDK12 high ATP) to (Degradation DC50 CDK12) ratio” value in assay [2] is given as 18457.

Consider `COc1ccc2[nH]c(CNc3nc(N4C[C@@H](C)O[C@@H](C)C4)nc4c(Br)cnn34)nc2c1` [Example 124, 8-bromo-2-[(2R, 6S)-2,6-dimethylmorpholin-4-yl]-N-[(5-methoxy-1H-benzimidazol-2-yl)methyl]pyrazolo[1,5-a][1,3,5]triazin-4-amine], for which the values for the IC50 (on CDK9/CycT1; in assay [1]) were 6100 nM and 4.66 nM, respectively. In addition, the DC50 turned out to be 0.768 nM in assay [2] and 0.142 nM in assay [3]. In addition, the “(IC50 CDK12 high ATP) to (Degradation DC50 CDK12) ratio” value in assay [2] was 636.

Take `CN1CCN(c2nc(NCc3nc4cc(F)ccc4[nH]3)n3ncc(Br)c3n2)CC1` [Example 134, 8-bromo-N-[(5-fluoro-1H-benzimidazol-2-yl)methyl]-2-(4-methylpiperazin-1-yl)pyrazolo[1,5-a][1,3,5]triazin-4-amine]: the IC50 on CDK9/CycT1 was over 20000 nM; in assay [1], 5.5 nM. The DC50 in assay [2] is 0.991 nM; in assay [3], 0.172 nM. For the same compound, the “(IC50 CDK12 high ATP) to (Degradation DC50 CDK12) ratio” value in assay [2] is listed as over 17850.

For the compound `C[C@@H]1CN(c2nc(NCc3nnc(-c4ccccc4)[nH]3)n3ncc(Br)c3n2)CCN1C.O=CO` [Example 130, 8-bromo-2-[(3R)-3,4-dimethylpiperazin-1-yl]-N-[(5-phenyl-4H-1,2,4-triazol-3-yl)methyl]pyrazolo[1,5-a][1,3,5]triazin-4-amine formate], the IC50 was 4860 nM at CDK9/CycT1 and 37.6 nM in assay [1]. Also, the DC50 in assay [2] came out at 3.31 nM; in assay [3], 2.01 nM. Besides, the “(IC50 CDK12 high ATP) to (Degradation DC50 CDK12) ratio” value in assay [2] came out at 2547.

With `Brc1cnn2c(NCc3nc4ccccc4[nH]3)nc(N3CCNCC3)nc12` [Example 128, N-[(1H-benzimidazol-2-yl)methyl]-8-bromo-2-(piperazin-1-yl)pyrazolo[1,5-a][1,3,5]triazin-4-amine], the IC50 at CDK9/CycT1 was over 20000 nM; in assay [1], 14.6 nM. For the same compound, the values for the DC50 in assay [2] and in assay [3] were 1.37 nM and 0.216 nM, respectively. Besides, the “(IC50 CDK12 high ATP) to (Degradation DC50 CDK12) ratio” value in assay [2] was determined as 7939.

`Cc1cccc2[nH]c(CNc3nc(N4CCOCC4)nc4c(Br)cnn34)nc12` [Example 150, 8-bromo-N-[(4-methyl-1H-benzimidazol-2-yl)methyl]-2-(morpholin-4-yl)pyrazolo[1,5-a][1,3,5]triazin-4-amine]: the IC50 is over 20000 nM on CDK9/CycT1 and 13 nM in assay [1]. In addition, the DC50 in assay [2] is 1.31 nM; in assay [3] it was 1.48 nM. Also, the “(IC50 CDK12 high ATP) to (Degradation DC50 CDK12) ratio” value in assay [2] was 2033.

With `CCC1COCCN1c1nc(NCc2nc3ccccc3[nH]2)n2ncc(Br)c2n1` (centres unmarked) [Example 116, N-(1H-benzimidazol-2-ylmethyl)-8-bromo-2-(3-ethylmorpholin-4-yl)pyrazolo[1,5-a][1,3,5]triazin-4-amine], the IC50 at CDK9/CycT1 is over 20000 nM; in assay [1] it was 123 nM. Besides, the DC50 in assay [2] came to 4.44 nM; in assay [3], 4.92 nM. Further, the “(IC50 CDK12 high ATP) to (Degradation DC50 CDK12) ratio” value in assay [2] turned out to be 1517.

On to `c1ccc2[nH]c(CNc3nc(N4CCOCC4)nc4c(-c5ccncc5)cnn34)nc2c1` [Example 111, N-[(1H-benzimidazol-2-yl)methyl]-2-(morpholin-4-yl)-8-(pyridin-4-yl)pyrazolo[1,5-a][1,3,5]triazin-4-amine hydrogen chloride (1/1)], for which the IC50 at CDK9/CycT1 was over 1630 nM; in assay [1], 15.3 nM. For the same compound, the figures for the DC50 in assay [2] and in assay [3] were 1.22 nM and 1 nM, respectively. Also, the “(IC50 CDK12 high ATP) to (Degradation DC50 CDK12) ratio” value in assay [2] was over 1337.

For the compound `CC(C)c1cnn2c(NCc3nc4ccccc4[nH]3)nc(NCC(C)(C)O)nc12` [Example 10, 1-{[4-{[(1H-benzimidazol-2-yl)methyl]amino}-8-(propan-2-yl)pyrazolo[1,5-a][1,3,5]triazin-2-yl]amino}-2-methylpropan-2-ol], the figures for the IC50 (on CDK9/CycT1; in assay [1]) were over 20000 nM and 25.3 nM, respectively. For the same compound, the results for the DC50 in assay [2] and in assay [3] were 6.85 nM and 3.6 nM, respectively. The “(IC50 CDK12 high ATP) to (Degradation DC50 CDK12) ratio” value in assay [2] is listed as 1277.

On to `C[C@@H]1CN(c2nc(NCc3nnc(-c4ccccc4)[nH]3)n3ncc(Br)c3n2)C[C@H](C)N1` [Example 127, 8-bromo-2-[(3R,5S)-3,5-dimethylpiperazin-1-yl]-N-[(5-phenyl-4H-1,2,4-triazol-3-yl)methyl]pyrazolo[1,5-a][1,3,5]triazin-4-amine], for which the IC50 on CDK9/CycT1 turned out to be 6320 nM; in assay [1], 16.2 nM. For the same compound, the DC50 in assay [2] was 5.1 nM; in assay [3] it was 2.77 nM. Further, the “(IC50 CDK12 high ATP) to (Degradation DC50 CDK12) ratio” value in assay [2] was 1905.

As to `Fc1ccc2[nH]c(CNc3nc(N4CCOCC4)nc4c(Br)cnn34)nc2c1` [Example 101, 8-bromo-N-[(5-fluoro-1H-benzimidazol-2-yl)methyl]-2-(morpholin-4-yl)pyrazolo[1,5-a][1,3,5]triazin-4-amine], the IC50 on CDK9/CycT1 is over 20000 nM; in assay [1] it was 3.14 nM. Also, the values for the DC50 in assay [2] and in assay [3] were 0.584 nM and 0.892 nM, respectively. In assay [2], the “(IC50 CDK12 high ATP) to (Degradation DC50 CDK12) ratio” value stood at 3856.

Regarding `Brc1cnn2c(NCc3nc4ccccc4[nH]3)nc(N3C[C@@H]4CCCN[C@@H]4C3)nc12` [Example 146, N-[(1H-benzimidazol-2-yl)methyl]-8-bromo-2-[(4aS,7aS)-octahydro-6H-pyrrolo[3,4-b]pyridin-6-yl]pyrazolo[1,5-a][1,3,5]triazin-4-amine], the IC50 is over 20000 nM at CDK9/CycT1 and 16.1 nM in assay [1]. Also, the DC50 in assay [2] stood at 3.82 nM; in assay [3], 0.56 nM. Besides, the “(IC50 CDK12 high ATP) to (Degradation DC50 CDK12) ratio” value in assay [2] is 2320.

As for `Brc1cnn2c(NCc3nc4ccccc4[nH]3)nc(N3C[C@H]4C[C@@H]3CO4)nc12` [Example 102, N-[(1H-benzimidazol-2-yl)methyl]-8-bromo-2-[(1R,4R)-2-oxa-5-azabicyclo[2.2.1]heptan-5-yl]pyrazolo[1,5-a][1,3,5]triazin-4-amine], the IC50 on CDK9/CycT1 was over 20000 nM; in assay [1], 29.6 nM. The values for the DC50 in assay [2] and in assay [3] were 1.41 nM and 0.517 nM, respectively. For the same compound, in assay [2], the “(IC50 CDK12 high ATP) to (Degradation DC50 CDK12) ratio” value stood at 4897.

As to `C[C@H]1CCCCN1c1nc(NCc2nc3ccccc3[nH]2)n2ncc(Br)c2n1` [Example 141, N-[(1H-benzimidazol-2-yl)methyl]-8-bromo-2-[(2S)-2-methylpiperidin-1-yl]pyrazolo[1,5-a][1,3,5]triazin-4-amine], the figures for the IC50 (on CDK9/CycT1; in assay [1]) were 12900 nM and 16.4 nM, respectively. The DC50 in assay [2] is 6.11 nM; in assay [3] it was 1.74 nM. The “(IC50 CDK12 high ATP) to (Degradation DC50 CDK12) ratio” value in assay [2] is recorded as 214.

In the case of `Brc1cnn2c(NCc3nnc(-c4ccccc4)[nH]3)nc(N3C[C@@H]4C[C@H]3CO4)nc12` [Example 120, 8-bromo-2-[(1S,4S)-2-oxa-5-azabicyclo[2.2.1]heptan-5-yl]-N-[(5-phenyl-4H-1,2,4-triazol-3-yl)methyl]pyrazolo[1,5-a][1,3,5]triazin-4-amine], the IC50 at CDK9/CycT1 worked out at 10400 nM; in assay [1] it was 30 nM. Besides, the DC50 in assay [2] worked out at 5.08 nM; in assay [3] it was 2.19 nM. In addition, the “(IC50 CDK12 high ATP) to (Degradation DC50 CDK12) ratio” value in assay [2] turned out to be 2588.

On to `Fc1ccc(-c2cnn3c(NCc4nc5ccccc5[nH]4)nc(N4CCOCC4)nc23)cc1` [Example 106, N-[(1H-benzimidazol-2-yl)methyl]-8-(4-fluorophenyl)-2-(morpholin-4-yl)pyrazolo[1,5-a][1,3,5]triazin-4-amine], for which the IC50 at CDK9/CycT1 was over 20000 nM; in assay [1], 32.2 nM. For the same compound, the DC50 in assay [2] was found to be 11.4 nM; in assay [3] it was 2.45 nM. The “(IC50 CDK12 high ATP) to (Degradation DC50 CDK12) ratio” value in assay [2] was over 876.
